For 22 molecules, IC50 results are on record in patent US20230310428A1, “EGFR INHIBITOR AND PREPARATION METHOD AND USE THEREOF” (HONGYUN BIOTECH CO., LTD., priority 2020, published 2023).

Holding throughout (assay): Growth inhibitory activity of compounds on BaF3 cell lines stably transfected with kinase (MTS, 48 h)
Common to all, as to type: cell-based

Assay [1] concerns the target T1, various mutants of kinase EGFR (BaF3 cell lines stably transfected with kinase) (Homo sapiens, UniProt P00533, T790M/C797S, form not given).
T1 construct: other: BaF3 cells stably transfected with EGFR Δ19Del/T790M/C797S; MTS, 48; other: BaF3 cell line stably transfected with EGFR Δ19Del/T790M/C7
As to conditions: BaF3 cell line stably transfected with EGFR Δ19Del/T790M/C797S, read-out: Δ19Del/T790M/ C797S growth inhibitory activity IC50. In outline: (§1)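 Growth is measured by MTS reduction (OD 490 nm) after 48 h compound exposure at up to 10 µM in 8 steps of 1/3. Inhibition is calculated against a 0.1% DMSO control and cell-free blank, and IC50 is derived from it.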

For assay [2], the target named is T2, various mutants of kinase EGFR (BaF3 cell lines stably transfected with kinase) (Homo sapiens, UniProt P00533, C797S/L858R/T790M).
T2 construct: expressed in transfected cells; host or cells: BaF3
T2 sequence (P00533 25-1210 T790M/C797S/L858R): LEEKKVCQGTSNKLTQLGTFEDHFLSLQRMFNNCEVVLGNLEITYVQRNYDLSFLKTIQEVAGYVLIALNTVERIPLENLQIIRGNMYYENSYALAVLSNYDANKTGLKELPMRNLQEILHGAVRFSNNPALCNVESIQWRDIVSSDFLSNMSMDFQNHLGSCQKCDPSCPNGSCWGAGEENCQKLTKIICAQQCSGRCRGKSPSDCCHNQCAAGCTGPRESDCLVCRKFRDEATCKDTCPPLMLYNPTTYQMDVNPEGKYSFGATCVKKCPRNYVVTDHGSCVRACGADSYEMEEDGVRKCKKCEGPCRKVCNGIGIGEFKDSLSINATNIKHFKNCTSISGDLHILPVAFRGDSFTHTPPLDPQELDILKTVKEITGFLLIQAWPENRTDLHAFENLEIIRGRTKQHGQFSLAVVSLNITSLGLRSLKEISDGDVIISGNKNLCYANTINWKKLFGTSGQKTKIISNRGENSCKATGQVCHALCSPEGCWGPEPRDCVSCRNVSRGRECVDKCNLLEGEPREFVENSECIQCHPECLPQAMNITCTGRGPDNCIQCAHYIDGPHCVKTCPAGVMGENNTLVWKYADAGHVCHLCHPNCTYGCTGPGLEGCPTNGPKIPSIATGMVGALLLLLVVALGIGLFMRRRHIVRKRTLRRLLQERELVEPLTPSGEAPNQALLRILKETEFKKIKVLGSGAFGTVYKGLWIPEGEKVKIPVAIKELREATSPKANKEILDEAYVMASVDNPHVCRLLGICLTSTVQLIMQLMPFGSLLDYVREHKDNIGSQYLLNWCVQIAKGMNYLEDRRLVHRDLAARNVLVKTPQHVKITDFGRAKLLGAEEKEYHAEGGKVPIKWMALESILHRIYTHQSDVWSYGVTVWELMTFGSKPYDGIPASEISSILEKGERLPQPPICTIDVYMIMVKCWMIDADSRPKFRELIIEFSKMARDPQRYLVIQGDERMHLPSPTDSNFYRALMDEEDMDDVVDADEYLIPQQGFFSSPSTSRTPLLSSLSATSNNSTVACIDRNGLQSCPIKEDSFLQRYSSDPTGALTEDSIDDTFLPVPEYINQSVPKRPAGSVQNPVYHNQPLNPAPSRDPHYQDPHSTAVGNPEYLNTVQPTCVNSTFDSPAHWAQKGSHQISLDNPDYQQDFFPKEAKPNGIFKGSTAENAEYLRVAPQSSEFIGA
Conditions: BaF3 cell line stably transfected with EGFR L858R/T790M/C797S, read-out: L858R/T790M/ C797S growth inhibitory activity IC50. The gist of the method: as §1

In assay [3] the target is T3, various mutants of kinase EGFR (BaF3 cell lines stably transfected with kinase) (Homo sapiens, UniProt P00533, T790M, form not given).
T3 construct: other: BaF3 cells stably transfected with EGFR Δ19Del/T790M; MTS, 48 h; other: BaF3 cell line stably transfected with EGFR Δ19Del/T790M; MTS, 48
As to conditions: BaF3 cell line stably transfected with EGFR Δ19Del/T790M, read-out: Δ19Del/ T790M growth inhibitory activity IC50. The gist of the method: as §1

Assay [4] addresses T4, various mutants of kinase EGFR (BaF3 cell lines stably transfected with kinase) (Homo sapiens, UniProt P00533).
T4 construct: other: BaF3 cells stably transfected with EGFR Δ19Del; MTS, 48 h; other: BaF3 cell line stably transfected with EGFR Δ19Del
Conditions: BaF3 cell line stably transfected with EGFR Δ19Del, read-out: Δ19Del growth inhibitory activity IC50. In outline: as §1

Assay [5] deals with T5, various mutants of kinase EGFR (BaF3 cell lines stably transfected with kinase) (Homo sapiens, UniProt P00533, L858R).
T5 construct: expressed in transfected cells; host or cells: BaF3
T5 sequence (P00533 25-1210 L858R): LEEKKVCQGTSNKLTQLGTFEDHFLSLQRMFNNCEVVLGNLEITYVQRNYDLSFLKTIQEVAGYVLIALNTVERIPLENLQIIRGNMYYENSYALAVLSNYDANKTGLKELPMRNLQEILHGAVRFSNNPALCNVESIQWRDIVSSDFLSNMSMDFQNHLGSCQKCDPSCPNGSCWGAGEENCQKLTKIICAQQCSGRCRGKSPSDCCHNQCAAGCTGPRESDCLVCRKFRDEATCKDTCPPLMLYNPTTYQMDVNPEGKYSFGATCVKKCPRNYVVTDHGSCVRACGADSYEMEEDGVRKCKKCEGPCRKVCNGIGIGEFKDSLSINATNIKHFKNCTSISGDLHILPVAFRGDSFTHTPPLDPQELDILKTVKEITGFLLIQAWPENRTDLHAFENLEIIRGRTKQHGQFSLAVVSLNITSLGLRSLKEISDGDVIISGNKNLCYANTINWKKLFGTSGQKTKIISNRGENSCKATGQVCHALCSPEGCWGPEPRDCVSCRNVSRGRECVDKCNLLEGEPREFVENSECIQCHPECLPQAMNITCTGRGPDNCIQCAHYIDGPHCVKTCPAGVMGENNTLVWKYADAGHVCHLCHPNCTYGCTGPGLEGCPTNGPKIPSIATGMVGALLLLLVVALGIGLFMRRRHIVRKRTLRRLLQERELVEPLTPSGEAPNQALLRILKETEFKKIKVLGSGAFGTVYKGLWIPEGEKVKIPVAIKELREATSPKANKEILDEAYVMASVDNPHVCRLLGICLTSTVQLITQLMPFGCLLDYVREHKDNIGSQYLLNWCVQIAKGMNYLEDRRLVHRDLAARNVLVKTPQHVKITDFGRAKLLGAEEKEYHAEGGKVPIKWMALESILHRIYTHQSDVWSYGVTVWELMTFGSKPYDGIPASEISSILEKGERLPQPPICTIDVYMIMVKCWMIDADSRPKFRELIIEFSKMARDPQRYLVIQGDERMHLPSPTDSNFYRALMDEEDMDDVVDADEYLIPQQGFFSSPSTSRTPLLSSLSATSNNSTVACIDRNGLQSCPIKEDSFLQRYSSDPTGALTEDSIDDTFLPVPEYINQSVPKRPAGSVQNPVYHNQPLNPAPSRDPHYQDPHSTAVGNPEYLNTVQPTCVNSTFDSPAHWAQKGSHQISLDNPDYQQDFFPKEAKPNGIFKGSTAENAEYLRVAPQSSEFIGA
Conditions: BaF3 cell line stably transfected with EGFR L858R, read-out: L858R growth inhibitory activity IC50. The gist of the method:
as §1

The target in assay [6] is T6, various mutants of kinase EGFR (BaF3 cell lines stably transfected with kinase) (Homo sapiens, UniProt P00533, L858R/T790M).
T6 construct: expressed in transfected cells; host or cells: BaF3
T6 sequence (P00533 25-1210 T790M/L858R): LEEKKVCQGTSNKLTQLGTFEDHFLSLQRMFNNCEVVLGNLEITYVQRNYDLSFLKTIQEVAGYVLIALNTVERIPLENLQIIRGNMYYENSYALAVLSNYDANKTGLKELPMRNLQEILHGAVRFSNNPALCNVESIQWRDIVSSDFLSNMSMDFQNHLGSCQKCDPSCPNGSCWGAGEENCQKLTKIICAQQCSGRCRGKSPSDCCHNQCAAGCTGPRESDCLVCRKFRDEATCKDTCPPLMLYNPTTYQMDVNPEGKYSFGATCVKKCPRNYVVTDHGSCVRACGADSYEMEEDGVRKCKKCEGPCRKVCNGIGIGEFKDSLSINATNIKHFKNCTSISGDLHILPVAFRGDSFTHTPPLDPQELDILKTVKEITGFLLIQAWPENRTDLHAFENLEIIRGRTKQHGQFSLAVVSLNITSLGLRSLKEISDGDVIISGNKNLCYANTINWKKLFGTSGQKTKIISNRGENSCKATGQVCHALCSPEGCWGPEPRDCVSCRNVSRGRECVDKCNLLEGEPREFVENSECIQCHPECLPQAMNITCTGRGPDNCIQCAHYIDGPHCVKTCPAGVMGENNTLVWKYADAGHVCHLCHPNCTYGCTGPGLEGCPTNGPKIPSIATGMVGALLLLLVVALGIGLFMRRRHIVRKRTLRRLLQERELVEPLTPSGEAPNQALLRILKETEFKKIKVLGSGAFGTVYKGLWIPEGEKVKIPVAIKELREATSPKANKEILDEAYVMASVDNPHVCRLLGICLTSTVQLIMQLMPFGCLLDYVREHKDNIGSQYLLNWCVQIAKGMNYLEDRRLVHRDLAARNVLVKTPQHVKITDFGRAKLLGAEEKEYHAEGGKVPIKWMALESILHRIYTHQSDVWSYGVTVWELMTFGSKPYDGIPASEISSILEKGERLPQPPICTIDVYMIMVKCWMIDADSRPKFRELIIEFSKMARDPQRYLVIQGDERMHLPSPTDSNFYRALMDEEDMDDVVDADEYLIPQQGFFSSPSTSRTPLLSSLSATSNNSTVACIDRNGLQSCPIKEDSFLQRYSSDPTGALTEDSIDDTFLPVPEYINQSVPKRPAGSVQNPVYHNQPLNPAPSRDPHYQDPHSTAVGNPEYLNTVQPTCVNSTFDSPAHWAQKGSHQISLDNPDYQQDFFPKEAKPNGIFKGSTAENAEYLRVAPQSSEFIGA
As to conditions: BaF3 cell line stably transfected with EGFR L858R/T790M, read-out: L858R/ T790M growth inhibitory activity IC50. In outline: as §1

T1 sequence (P00533 with tags, fused parts or gaps DEL746-750/T790M/C797S, form open): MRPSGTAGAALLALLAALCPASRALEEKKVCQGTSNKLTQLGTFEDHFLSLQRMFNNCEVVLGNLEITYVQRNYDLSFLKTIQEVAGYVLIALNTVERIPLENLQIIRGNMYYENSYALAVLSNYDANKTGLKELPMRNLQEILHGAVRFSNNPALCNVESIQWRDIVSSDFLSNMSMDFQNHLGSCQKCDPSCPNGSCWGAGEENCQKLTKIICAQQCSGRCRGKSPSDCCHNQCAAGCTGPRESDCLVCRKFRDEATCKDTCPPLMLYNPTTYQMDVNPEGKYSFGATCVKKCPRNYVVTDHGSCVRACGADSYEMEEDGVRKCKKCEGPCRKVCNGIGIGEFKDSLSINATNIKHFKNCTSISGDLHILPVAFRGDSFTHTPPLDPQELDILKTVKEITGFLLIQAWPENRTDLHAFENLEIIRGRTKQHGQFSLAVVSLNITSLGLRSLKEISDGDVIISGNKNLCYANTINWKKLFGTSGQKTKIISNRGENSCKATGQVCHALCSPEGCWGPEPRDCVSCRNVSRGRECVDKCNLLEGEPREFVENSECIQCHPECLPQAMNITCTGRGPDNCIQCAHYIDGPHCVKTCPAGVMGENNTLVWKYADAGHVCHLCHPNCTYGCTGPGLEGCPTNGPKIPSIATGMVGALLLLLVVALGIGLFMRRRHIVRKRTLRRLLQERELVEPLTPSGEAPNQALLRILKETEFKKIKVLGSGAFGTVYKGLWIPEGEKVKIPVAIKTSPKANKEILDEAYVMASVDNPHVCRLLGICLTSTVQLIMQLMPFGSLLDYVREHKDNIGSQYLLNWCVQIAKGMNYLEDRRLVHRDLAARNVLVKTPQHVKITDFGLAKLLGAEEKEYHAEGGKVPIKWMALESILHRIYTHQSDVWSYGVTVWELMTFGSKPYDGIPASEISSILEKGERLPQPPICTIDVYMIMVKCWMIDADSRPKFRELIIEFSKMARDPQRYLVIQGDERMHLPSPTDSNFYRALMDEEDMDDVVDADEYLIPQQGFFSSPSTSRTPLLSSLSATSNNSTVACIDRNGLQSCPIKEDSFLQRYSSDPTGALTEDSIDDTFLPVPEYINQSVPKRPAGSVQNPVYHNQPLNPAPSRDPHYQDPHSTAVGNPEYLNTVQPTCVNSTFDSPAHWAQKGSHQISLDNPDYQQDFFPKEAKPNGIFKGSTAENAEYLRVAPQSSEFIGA

With `CCc1cc(Nc2ncc(CC)c(Nc3ccc4nccnc4c3N(C)S(C)(=O)=O)n2)c(OC)cc1N1CCN(C)CC1` [Compound I-322], the IC50 in assay [1], in assay [2], in assay [3], in assay [4], in assay [5] and in assay [6] was not above 50 nM throughout.

Take `CCc1cc(Nc2ncc(CC)c(Nc3ccc4nccnc4c3N(C)S(C)(=O)=O)n2)c(OC)cc1N1CCC(N(C)C)CC1` [Compound I-323]: the IC50 in assay [1], in assay [2], in assay [3], in assay [4], in assay [5] and in assay [6] was not above 50 nM throughout.

Consider `CCc1cc(Nc2ncc(CC)c(Nc3ccc4nccnc4c3N(C)S(C)(=O)=O)n2)c(OC)cc1N1CCC(N(C)C)C1` (stereo not drawn) [Compound I-324], for which the IC50 in assay [1], in assay [2], in assay [3], in assay [4], in assay [5] and in assay [6] was not above 50 nM each time.

Consider `COc1cc(N2CCC(N3CCN(C)CC3)CC2)ccc1Nc1ncc(C(C)C)c(Nc2ccc3nccnc3c2N(C)S(C)(=O)=O)n1` [Compound I-325], for which the IC50 in assay [1] is not above 50 nM; in assay [2], 50 to 500 nM; in assay [3], 50 to 500 nM; in assay [4], 50 to 500 nM; in assay [5], 50 to 500 nM; in assay [6], 50 to 500 nM.

Consider `COc1cc(N2CCC(N3CCN(C)CC3)CC2)c(C)cc1Nc1ncc(C(C)C)c(Nc2ccc3nccnc3c2N(C)S(C)(=O)=O)n1` [Compound I-326], for which the IC50 in assay [1], in assay [2], in assay [3], in assay [4], in assay [5] and in assay [6] was 50 to 500 nM in each case.

In the case of `CCc1cc(Nc2ncc(C(C)C)c(Nc3ccc4nccnc4c3N(C)S(C)(=O)=O)n2)c(OC)cc1N1CCC(N2CCN(C)CC2)CC1` [Compound I-327], the IC50 in assay [1] was 50 to 500 nM; in assay [2], 50 to 500 nM; in assay [3], not above 50 nM; in assay [4] it was not above 50 nM; in assay [5], not above 50 nM; in assay [6] it was not above 50 nM.

`CCc1cc(Nc2ncc(C(C)C)c(Nc3ccc4nccnc4c3N(C)S(C)(=O)=O)n2)c(OC)nc1N1CCC(N2CCN(C)CC2)CC1` [Compound I-328]: the IC50 is 50 to 500 nM in assay [1]; 50 to 500 nM in assay [2]; not above 50 nM in assay [3]; 50 to 500 nM in assay [4]; 50 to 500 nM in assay [5]; not above 50 nM in assay [6].

`CCc1cc(Nc2ncc(C(C)C)c(Nc3ccc4nccnc4c3N(C)S(C)(=O)=O)n2)c(OC)cc1N1CCN(C)CC1` [Compound I-329]: the IC50 in assay [1] was 50 to 500 nM; in assay [2], 50 to 500 nM; in assay [3], not above 50 nM; in assay [4] it was 50 to 500 nM; in assay [5] it was 50 to 500 nM; in assay [6], not above 50 nM.

On to `CCc1cc(Nc2ncc(C(C)C)c(Nc3ccc4nccnc4c3N(C)S(C)(=O)=O)n2)c(OC)cc1N1CCC(N(C)C)CC1` [Compound I-330], for which the IC50 in assay [1], in assay [2], in assay [3], in assay [4], in assay [5] and in assay [6] was not above 50 nM throughout.

Consider `CCc1cc(Nc2ncc(C(C)C)c(Nc3ccc4nccnc4c3N(C)S(C)(=O)=O)n2)c(OC)cc1N1CCC(N(C)C)C1` (stereo not drawn) [Compound I-331], for which the IC50 is not above 50 nM in assay [1]; not above 50 nM in assay [2]; not above 50 nM in assay [3]; 50 to 500 nM in assay [4]; 50 to 500 nM in assay [5]; 50 to 500 nM in assay [6].

As for `COc1cc(N2CCC(N3CCN(C)CC3)CC2)c(C)cc1Nc1ncc(OC)c(Nc2ccc3nccnc3c2N(C)S(C)(=O)=O)n1` [Compound I-332], the IC50 in assay [1], in assay [2], in assay [3], in assay [4], in assay [5] and in assay [6] was not above 50 nM throughout.

With `CCc1cc(Nc2ncc(OC)c(Nc3ccc4nccnc4c3N(C)S(C)(=O)=O)n2)c(OC)cc1N1CCC(N2CCN(C)CC2)CC1` [Compound I-333], the IC50 in assay [1], in assay [2], in assay [3], in assay [4], in assay [5] and in assay [6] was not above 50 nM throughout.

As for `CCc1cc(Nc2ncc(OC)c(Nc3ccc4nccnc4c3N(C)S(C)(=O)=O)n2)c(OC)nc1N1CCC(N2CCN(C)CC2)CC1` [Compound I-334], the IC50 in assay [1], in assay [2], in assay [3], in assay [4], in assay [5] and in assay [6] was not above 50 nM in each case.

Take `CCc1cc(Nc2ncc(OC)c(Nc3ccc4nccnc4c3N(C)S(C)(=O)=O)n2)c(OC)cc1N1CCC(N(C)C)C1` (stereo not drawn) [Compound I-335]: the IC50 in assay [1], in assay [2], in assay [3], in assay [4], in assay [5] and in assay [6] was not above 50 nM throughout.

Consider `CCOc1cnc(Nc2cc(C)c(N3CCC(N4CCN(C)CC4)CC3)cc2OC)nc1Nc1ccc2nccnc2c1N(C)S(C)(=O)=O` [Compound I-336], for which the IC50 in assay [1] is 500 to 2500 nM; in assay [2], 50 to 500 nM; in assay [3], 50 to 500 nM; in assay [4], 50 to 500 nM; in assay [5] it was 50 to 500 nM; in assay [6], 50 to 500 nM.

As for `CCOc1cnc(Nc2cc(CC)c(N3CCC(N4CCN(C)CC4)CC3)cc2OC)nc1Nc1ccc2nccnc2c1N(C)S(C)(=O)=O` [Compound I-337], the IC50 in assay [1] is 50 to 500 nM; in assay [2], 50 to 500 nM; in assay [3], not above 50 nM; in assay [4] it was not above 50 nM; in assay [5] it was 50 to 500 nM; in assay [6] it was 50 to 500 nM.

Turning to `CCOc1cnc(Nc2cc(CC)c(N3CCC(N4CCN(C)CC4)CC3)nc2OC)nc1Nc1ccc2nccnc2c1N(C)S(C)(=O)=O` [Compound I-338], the IC50 in assay [1] lay within 500 to 2500 nM; in assay [2], 50 to 500 nM; in assay [3], 50 to 500 nM; in assay [4] it was 50 to 500 nM; in assay [5], 50 to 500 nM; in assay [6], 50 to 500 nM.

In the case of `COc1cc(N2CCC(N3CCN(C)CC3)CC2)c(C)cc1Nc1nccc(Nc2ccc3nccnc3c2N(C)S(C)(=O)=O)n1` [Compound I-340], the IC50 in assay [1] is 50 to 500 nM; in assay [2], 50 to 500 nM; in assay [3] it was not above 50 nM; in assay [4] it was not above 50 nM; in assay [5], not above 50 nM; in assay [6], not above 50 nM.

On to `CCc1cc(Nc2nccc(Nc3ccc4nccnc4c3N(C)S(C)(=O)=O)n2)c(OC)cc1N1CCC(N2CCN(C)CC2)CC1` [Compound I-341], for which the IC50 in assay [1] is 50 to 500 nM; in assay [2] it was not above 50 nM; in assay [3], not above 50 nM; in assay [4], not above 50 nM; in assay [5], not above 50 nM; in assay [6], not above 50 nM.

With `COc1cc(N2CCC(N3CCN(C)CC3)CC2)c(C(C)C)cc1Nc1nccc(Nc2ccc3nccnc3c2N(C)S(C)(=O)=O)n1` [Compound I-342], the IC50 in assay [1] is 500 to 2500 nM; in assay [2], 500 to 2500 nM; in assay [3] it was 50 to 500 nM; in assay [4], 50 to 500 nM; in assay [5], 50 to 500 nM; in assay [6], 50 to 500 nM.

On to `COc1cc(N2CCC(N3CCN(C)CC3)CC2)c(C2CC2)cc1Nc1nccc(Nc2ccc3nccnc3c2N(C)S(C)(=O)=O)n1` [Compound I-343], for which the IC50 in assay [1], in assay [2], in assay [3], in assay [4], in assay [5] and in assay [6] was 50 to 500 nM each time.

With `CCc1cc(Nc2nccc(Nc3ccc4nccnc4c3N(C)S(C)(=O)=O)n2)ccc1N1CCC(N2CCN(C)CC2)CC1` [Compound I-344], the IC50 in assay [1] was 50 to 500 nM; in assay [2], not above 50 nM; in assay [3] it was 50 to 500 nM; in assay [4], not above 50 nM; in assay [5] it was not above 50 nM; in assay [6] it was not above 50 nM.
